According to US20240209456A1, “METHODS AND COMPOSITIONS RELATED TO CELL-CYCLE RNA's” (BETH ISRAEL DEACONESS MEDICAL CENTER, priority 2021, published 2024):
*1 amine or outer side, *2 acyl side, *3 side chain or, on linkers, in order; H or OH if unused. Where a SMILES comes first, the peptide text is derived from it. Bridges are numbered along the chain shown (N, C = ends). Roman numbers before positions name the chains, in order. [ ]: non-standard residue; d: D form. Actinocin(9to1) = Cc1c2oc3c(C)ccc(C(=O)[*:1])c3nc-2c(C(=O)[*:2])c(N)c1=O; NMeV = CN[C@H](C(=O)O)C(C)C; Sar = CNCC(=O)O

Test system: c-MYC SPEARs
Assay: qRT-PCR / strand-specific qRT-PCR of c-MYC SPEARs
Format: cell-based, human
Conditions: for c-MYC SPEARs level upon transcription inhibitors: HL-60, DRB and ActD, FIG. 10C; for response of total c-MYC SPEARs: HL-60 released from double thymidine block, 2 hrs, MG149 200 μM, TH1834 500 μM
Procedure: Total RNA isolation was carried out and all RNA samples used in this study were treated with DNase I (10 U of DNase I per 3 μg of total RNA; 37° C. for one hour; in the presence of RNase inhibitor). After DNase I treatment, RNA samples were extracted with acidic phenol (pH 4.3) to eliminate any remaining traces of DNA. cDNA syntheses were performed with Random Primers (Invitrogen) or gene-specific primers with Transcriptor Reverse Transcriptase (Roche Applied Science) according to the manufacturer's recommendation. cDNA was purified with a High Pure PCR Product Purification Kit (Roche Applied Science).
Sybr green reaction was performed using iQ Sybr Green supermix (Biorad, Hercules, CA) using the following parameters: 95° C. (10 min), 40 cycles of 95° C. (15 s) and 60° C. (1 min) 72° C. (1 min). TaqMan analysis was performed using Hotstart Probe One-step qRT-PCR master mix (USB) at the following conditions: 50° C. (10 min.), 95° C. (2 min.), and then 40 cycles of 95° C. (15 sec.) and 60° C. (60 sec.).
Primers used for strand-specific real-time RT PCR (Sybr): Reverse Transcriptase primer for c-MYC SPEARs: 5′-AACCGCATCCTTGTCCTGTGAGTA-3′ (SEQ ID NO: 1); PCR primers: Forward: 5′-ACAGGCAGACACATCTCAGGGCTA-3′ (SEQ ID NO: 2); Reverse: 5′-ATAGGGAGGAATGATAGAGGCATA-3′ (SEQ ID NO: 3); and Reverse Transcriptase primer for PU1 SPEARs: 5′-GGCTTTTGCTCTAACCCAAC-3′ (SEQ ID NO: 4); PCR primers: Forward: 5′-ACTATGCTGAAGACCCTACAC-3′ (SEQ ID NO: 5); Reverse: 5′-GCTCTAACCCAACAAATGCC-3′ (SEQ ID NO: 6).
Nascent RNA/DNA capture was performed using Click-iT Nascent RNA Capture Kit (ThermoFisher) according to the manufacturer's instructions with minor modifications. Briefly, 1. Labeling the cells with EU/EdU. 200 mM EU or 30 mM EdU stock solutions were added to the cells, to a final concentration 0.5 mM or 30 μM, respectively. 2. Incubation. The cells were incubated for 1 or 2 hours. 3. RNA/DNA isolation. The cells were harvested and the RNA/DNA were isolated and dissolved in 14 μL of H2O. 4. Biotinylation of RNA/DNA by Click reaction. Click-iT reaction cocktail (50 μL per reaction) was prepared accordingly to manufacturer's instructions: a mixture containing 1× Click-iT EU buffer; 2 mM CuSO4; 1 mM Biotin azide; 13.25 μL of the isolated RNA; 10 mM Click-iT reaction buffer additive 1; 12 mM Click-iT reaction buffer additive 2 was prepared. After adding each component, the reaction cocktail was gently mixed by vortexing. The addition of the Click-iT reaction buffer additive 1 stock initiates the click reaction between the EU-RNA/EdU-DNA and biotin azide. Afterwards the Click-iT® reaction buffer additive 2 is added and incubated for 30 minutes with gentle vortexing. 5. RNA/DNA precipitation. […]

Row | Structure (SMILES) | c-MYC SPEARs level upon transcription inhibitors | response of total c-MYC SPEARs
1 | Cc1c2oc3c(C)ccc(C(=O)N[C@@H]4C(=O)N[C@H](C(C)C)C(=O)N5CCC[C@H]5C(=O)N(C)CC(=O)N(C)[C@@H](C(C)C)C(=O)O[C@@H]4C)c3nc-2c(C(=O)N[C@@H]2C(=O)N[C@H](C(C)C)C(=O)N3CCC[C@H]3C(=O)N(C)CC(=O)N(C)[C@@H](C(C)C)C(=O)O[C@@H]2C)c(N)c1=O [ActD, Actinomycin D] (I: T[dV]P[Sar][NMeV] / II: T[dV]P[Sar][NMeV]; ester I:1-I:C, II:1-II:C; linker I:N-II:N via Actinocin(9to1)) | negatively affected | –
2 | OC[C@H]1O[C@@H](n2cnc3cc(Cl)c(Cl)cc32)[C@H](O)[C@@H]1O [DRB, 5,6-Dichlorobenzimidazole 1-β-D-ribofuranoside] | negatively affected | –
3 | CCCCCCCc1ccc(CCc2cccc(O)c2C(=O)O)cc1 [MG149] | – | not affected
4 | O=C(O)Cn1nnc(-c2ccc(CN(CCCCOc3ccc(CN4CCCC4)cc3)CCc3ccccc3)cc2)n1 [TH1834] | – | not affected
